Assay results published in PubChem BioAssay AID330 (DTP/NCI, 2004).
Where “and” joins values, the source holds several entries; their conditions need not be identical. Equal entries are not always repeated. Inconclusive results and toxic doses are left out.

Tested on: P388 leukemia ip, CD2F1 mice, survival T/C
Assay: NCI In Vivo Anticancer Drug Screen. Data for tumor model P388 Leukemia (intraperitoneal) in CD2F1 (CDF1) mice
Settings: endpoint: median survival time, higher = longer survival
In short: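 Mice carrying the transplanted tumor received test compound or vehicle. Survival was recorded in each group, and the value is the treated-group measurement divided by that of the vehicle-treated control group.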

[1] = dose: 50.0 mg/kg/injection, schedule: Q01DX009 (ip), vehicle: saline with Tween-80
[2] = dose: 100.0 mg/kg/injection, schedule: Q01DX009 (ip), vehicle: saline with Tween-80
[3] = dose: 200.0 mg/kg/injection, schedule: Q01DX009 (ip), vehicle: saline with Tween-80
[4] = dose: 50.0 mg/kg/injection, schedule: Q01DX005 (ip), vehicle: saline
[5] = dose: 50.0 mg/kg/injection, schedule: Q01DX005 (ip), vehicle: saline with Tween-80
[6] = dose: 100.0 mg/kg/injection, schedule: Q01DX005 (ip), vehicle: saline with Tween-80
[7] = dose: 200.0 mg/kg/injection, schedule: Q01DX005 (ip), vehicle: saline with Tween-80
[8] = dose: 100.0 mg/kg/injection, schedule: Q04DX003 (ip), vehicle: saline with Tween-80
[9] = dose: 200.0 mg/kg/injection, schedule: Q04DX003 (ip), vehicle: saline with Tween-80
[10] = dose: 400.0 mg/kg/injection, schedule: Q04DX003 (ip), vehicle: saline with Tween-80
[11] = dose: 50.0 mg/kg/injection, schedule: Q01DX009 (ip), vehicle: saline
[12] = dose: 100.0 mg/kg/injection, schedule: Q01DX009 (ip), vehicle: saline
[13] = dose: 200.0 mg/kg/injection, schedule: Q01DX009 (ip), vehicle: saline

CCOC(=O)Nc1nc2cc(C(=O)OC)n(C)c2s1
T/C [1]: 95 % of control
T/C [2]: 86 % of control
T/C [3]: 88 % of control

CC(=O)OC1CC(C)(C2OC(=O)CC2CO)C2=CC(=O)OC3CC4C(C)(O)C=CC(=O)C4(C)C1C23C (stereo unspecified)
T/C (dose: 12.5 mg/kg/injection, schedule: Q01DX001 (ip), vehicle: Klucel (hydroxypropylcellulose) (HPC)): 100 % of control
T/C (dose: 25.0 mg/kg/injection, schedule: Q01DX001 (ip), vehicle: Klucel (hydroxypropylcellulose) (HPC)): 100 % of control
T/C (dose: 50.0 mg/kg/injection, schedule: Q01DX001 (ip), vehicle: Klucel (hydroxypropylcellulose) (HPC)): 102 % of control
T/C (dose: 100.0 mg/kg/injection, schedule: Q01DX001 (ip), vehicle: Klucel (hydroxypropylcellulose) (HPC)): 105 % of control

CN(C)C1C(O)C2Oc3c(cc(O)c4c3C(=O)c3cc5c(c(O)c3C4=O)C(NCCO)CC(C)(O)C5)C(C)(O2)C1O (stereo unspecified)
T/C (dose: 6.25 mg/kg/injection, schedule: Q01DX009 (ip), vehicle: other): 104 % of control
T/C (dose: 12.5 mg/kg/injection, schedule: Q01DX009 (ip), vehicle: other): 108 % of control
T/C (dose: 25.0 mg/kg/injection, schedule: Q01DX009 (ip), vehicle: other): 123 % of control
T/C (dose: 50.0 mg/kg/injection, schedule: Q01DX009 (ip), vehicle: other): 157 % of control
T/C (dose: 100.0 mg/kg/injection, schedule: Q01DX009 (ip), vehicle: other): 157 % of control

CC(CC(=O)O)C(C)(C#N)C(=O)O (stereo unspecified)
T/C [4]: 102 % of control and 110 % of control
T/C (dose: 100.0 mg/kg/injection, schedule: Q01DX005 (ip), vehicle: saline): 91 % of control and 96 % of control
T/C (dose: 200.0 mg/kg/injection, schedule: Q01DX005 (ip), vehicle: saline): 96 % of control

O=C(CCCl)OCCCl
T/C (dose: 50.0 mg/kg/injection, schedule: Q01DX009 (ip), vehicle: saline sonified): 95 % of control
T/C (dose: 100.0 mg/kg/injection, schedule: Q01DX009 (ip), vehicle: saline sonified): 100 % of control
T/C (dose: 200.0 mg/kg/injection, schedule: Q01DX009 (ip), vehicle: saline sonified): 90 % of control

CN1C(=O)N(C)C2(C(=O)N(C)C(=O)N2C)N(C)C1=O
T/C (dose: 60.0 mg/kg/injection, schedule: Q01DX005 (ip), vehicle: Klucel (hydroxypropylcellulose) (HPC)): 99 % of control and 102 % of control
T/C (dose: 120.0 mg/kg/injection, schedule: Q01DX005 (ip), vehicle: Klucel (hydroxypropylcellulose) (HPC)): 96 % of control
T/C (dose: 240.0 mg/kg/injection, schedule: Q01DX005 (ip), vehicle: Klucel (hydroxypropylcellulose) (HPC)): 98 % of control and 105 % of control

C[C@@H]1CCC[C@H]1CC(N)C(=O)O (stereo partly specified)
T/C [5]: 99 % of control
T/C [6]: 95 % of control
T/C [7]: 91 % of control

O=c1[nH]nc(-c2ccc(Br)cc2)s1
T/C [8]: 98 % of control
T/C [9]: 100 % of control
T/C [10]: 99 % of control

N#CC1(C#N)CC1c1ccccc1 (stereo unspecified)
T/C (dose: 60.0 mg/kg/injection, schedule: Q01DX005 (ip), vehicle: saline with Tween-80): 105 % of control
T/C (dose: 120.0 mg/kg/injection, schedule: Q01DX005 (ip), vehicle: saline with Tween-80): 96 % of control
T/C (dose: 240.0 mg/kg/injection, schedule: Q01DX005 (ip), vehicle: saline with Tween-80): 96 % of control

C1CCOCCOCCOCCOCCOCCCCCC2(CC1)OCCO2
T/C [5]: 96 % of control
T/C [6]: 94 % of control
T/C [7]: 96 % of control

C[CH2][Ge]([CH2]C)[CH2]C.C[CH2][Ge]([Cl])[CH2]C.C[CH2][Ge][CH2]C
T/C [11]: 104 % of control
T/C [12]: 103 % of control
T/C [13]: 103 % of control

CN(C)[C@@H]1C(=O)C(C(N)=O)=C(O)[C@@]2(O)C(=O)C3=C(O)c4c(O)ccc(Cl)c4[C@@](C)(O)[C@H]3C[C@@H]12.[Cl][Sb]([Cl])[Cl]
T/C (dose: 12.5 mg/kg/injection, schedule: Q01DX005 (ip), vehicle: saline with Tween-80): 108 % of control
T/C [5]: 116 % of control and 120 % of control
T/C [6]: 104 % of control

N/C(=N\N=C1CCCCC1)N[N+](=O)[O-]
T/C (dose: 50.0 mg/kg/injection, schedule: Q01DX005 (ip), vehicle: Klucel (hydroxypropylcellulose) (HPC)): 105 % of control
T/C (dose: 100.0 mg/kg/injection, schedule: Q01DX005 (ip), vehicle: Klucel (hydroxypropylcellulose) (HPC)): 102 % of control
T/C (dose: 200.0 mg/kg/injection, schedule: Q01DX005 (ip), vehicle: Klucel (hydroxypropylcellulose) (HPC)): 102 % of control

CC1(C)CC(=O)C=C(NCc2ccccc2)C1
T/C (dose: 25.0 mg/kg/injection, schedule: Q01DX009 (ip), vehicle: saline with Tween-80): 104 % of control
T/C [1]: 104 % of control and 90 % of control
T/C [2]: 101 % of control and 96 % of control
T/C [3]: 99 % of control and 91 % of control

CCn1cc(C(=O)O)c(=O)c2ccc(-c3cn(C)nc3C)nc21 (tested in a mixture with another compound)
T/C (dose: 50.0 mg/kg/injection, schedule: Q04DX002 (ip), vehicle: saline): 99 % of control
T/C (dose: 100.0 mg/kg/injection, schedule: Q04DX002 (ip), vehicle: saline): 99 % of control
T/C (dose: 200.0 mg/kg/injection, schedule: Q04DX002 (ip), vehicle: saline): 98 % of control

CCC1=C[C@H]2CN(CCc3c([nH]c4ccccc34)[C@@](C(=O)OC)(c3cc4c(cc3OC)N(C=O)[C@H]3[C@@](O)(C(=O)OC)[C@H](OC(C)=O)[C@]5(CC)C=CCN6CC[C@]43[C@@H]65)C2)C1
T/C (dose: 0.13 mg/kg/injection, schedule: Q01DX001 (ip), vehicle: water): 99 % of control
T/C (dose: 0.25 mg/kg/injection, schedule: Q01DX001 (ip), vehicle: water): 100 % of control
T/C (dose: 0.5 mg/kg/injection, schedule: Q01DX001 (ip), vehicle: water): 116 % of control

C/C=C(\C)N=NNc1ccccc1
T/C (dose: 100.0 mg/kg/injection, schedule: Q04DX003 (ip), vehicle: saline + Tween-80 + alcohol): 114 % of control
T/C (dose: 200.0 mg/kg/injection, schedule: Q04DX003 (ip), vehicle: saline + Tween-80 + alcohol): 114 % of control

Cc1cc(C)c(C#N)c(=O)[nH]1
T/C (dose: 12.5 mg/kg/injection, schedule: Q04DX003 (ip), vehicle: saline with Tween-80): 97 % of control
T/C (dose: 25.0 mg/kg/injection, schedule: Q04DX003 (ip), vehicle: saline with Tween-80): 103 % of control
T/C (dose: 50.0 mg/kg/injection, schedule: Q04DX003 (ip), vehicle: saline with Tween-80): 105 % of control
T/C [8]: 103 % of control

CCC[CH2][Ge](=[O])[CH2]CCC
T/C [11]: 103 % of control
T/C [12]: 102 % of control
T/C [13]: 88 % of control

COc1ccc(C2=CC3CCC(C2)N3C)cc1 (stereo unspecified)
T/C (dose: 6.25 mg/kg/injection, schedule: Q01DX005 (ip), vehicle: Klucel (hydroxypropylcellulose) (HPC)): 96 % of control
T/C (dose: 12.5 mg/kg/injection, schedule: Q01DX005 (ip), vehicle: Klucel (hydroxypropylcellulose) (HPC)): 110 % of control
T/C (dose: 12.5 mg/kg/injection, schedule: Q01DX005 (ip), vehicle: saline): 102 % of control
T/C (dose: 25.0 mg/kg/injection, schedule: Q01DX005 (ip), vehicle: Klucel (hydroxypropylcellulose) (HPC)): 110 % of control and 113 % of control
T/C (dose: 25.0 mg/kg/injection, schedule: Q01DX005 (ip), vehicle: saline): 98 % of control
T/C [4]: 94 % of control

[Co+3].[NH-]CC[NH-].[NH-]CC[NH-].[NH-]CC[SH2+].[O-][Cl+3]([O-])([O-])O
T/C (dose: 100.0 mg/kg/injection, schedule: Q04DX003 (ip), vehicle: saline): 100 % of control
T/C (dose: 200.0 mg/kg/injection, schedule: Q04DX003 (ip), vehicle: saline): 100 % of control
T/C (dose: 400.0 mg/kg/injection, schedule: Q04DX003 (ip), vehicle: saline): 102 % of control
T/C (dose: 800.0 mg/kg/injection, schedule: Q04DX003 (ip), vehicle: saline): 99 % of control

CC(C)(C)COSc1ccccc1
T/C [8]: 106 % of control

C1Cc2onc(-c3noc4c3CCC4)c2C1
T/C (dose: 60.0 mg/kg/injection, schedule: Q01DX005 (ip), vehicle: saline): 104 % of control
T/C (dose: 120.0 mg/kg/injection, schedule: Q01DX005 (ip), vehicle: saline): 96 % of control
T/C (dose: 240.0 mg/kg/injection, schedule: Q01DX005 (ip), vehicle: saline): 99 % of control

COc1ccc(N=C2SCC(=O)N2NC(=O)CN2C(=O)c3ccccc3C2=O)cc1
T/C (dose: 100.0 mg/kg/injection, schedule: Q01DX001 (ip), vehicle: saline with Tween-80): 99 % of control
T/C (dose: 200.0 mg/kg/injection, schedule: Q01DX001 (ip), vehicle: saline with Tween-80): 97 % of control
T/C (dose: 400.0 mg/kg/injection, schedule: Q01DX001 (ip), vehicle: saline with Tween-80): 104 % of control

Cc1cc(C)nc(NCCCCCCNc2nc(C)cc(C)n2)n1
T/C [8]: 101 % of control
T/C [9]: 90 % of control
T/C [10]: 92 % of control
